We go through two compounds from patent US6486161B1, “Use of rifamycin derivative for treating mastitis in a domestic animal” (priority 2000, dated 2002).

Values after ≈ are worked out from the molar mass of the structure shown. Like-named read-outs stand apart in the source and are kept apart here.

In experiment [1] the test system is Staphylococcus aureus 6097. The experiment is described as follows: Dose titration in the mouse mastitis model (S. aureus-induced murine mastitis). It is filed as in vivo. The settings on record: mice, read 6 days after infection; for ED (mg/kg/d) Mastitis: 50% of mice without mastitis; for ED (mg/kg/d) Culture: 50% of mice with no bacteria cultured from gland.
Experiment [2] deals with Staphylococcus aureus 9203. Description: MIC against the strain of the intracellular killing assay. The format is cell-based.
Another experiment has as its system S. aureus 6097. Description: MIC, microbroth dilution, strain 6097. The format is cell-based, Staphylococcus aureus. On the procedure:
(§1) Four S. aureus strains were used: S. aureus 30857, a rifampin-resistant isolate: S. aureus 6097, a strain used in the mouse mastitis test and originally from a case of gangrenous bovine mastitis; S. aureus B83-1, derived from the Newbould 305 strain; and S. aureus ATCC 29213, the in vitro control stain recommended by NCCLS.
(§2) All S. aureus strains were maintained on 3 mm glass beads immersed in trypticase soy broth (BBL Microbiology Systems, Cockeysville, Md.) with 10% glycerol and held at −70° C. until revived. Prior to testing, the strains were subcultured on tryptose blood agar base (Difco, Detroit, Mich.) supplemented with 5% sheep blood for 24 hours at 35° C.
(§3) These compounds were dissolved in 95% ethanol, a solution which was then diluted to 10% ethanol with sterile distilled water. Further dilutions were conducted in water.
(§4) MIC (Minimum Inhibitory Concentration) determinations were performed using the microbroth dilution method. (National Committee for Clinical Laboratory Standards, 1990 Approved Standard […]. Methods for dilution antimicrobial susceptibility tests for bacteria that grow aerobically, 3rd edition. National Committee for Clinical Laboratory Standards, Villanova, Pa.) The results are shown in Table 3, wherein R is the alkyl group R in the rifamycin derivative (1).
(In general: In broth dilution the organism is exposed to a series of concentrations in liquid medium.)

Experiment [3] has as its system S. aureus ATCC 29213. Description: MIC, microbroth dilution, strain ATCC 29213. It is filed as cell-based, Staphylococcus aureus. As to the method:
as §1, §2, §3, §4

Experiment [4] deals with S. aureus ATCC 29213. Description: Mutation frequency for resistance, strain ATCC 29213. The format is cell-based, Staphylococcus aureus. On the procedure:
The mutation frequency for development of resistance to the rifamycin derivative (1) as compared to rifampin was determined with selected Staphylococcus aureus strains.
as §1, §2, §3
The mutation frequency for development of resistance to the compounds tested was determined by the following method. A single colony of each strain was removed from the surface of a blood agar plate with a cotton swab, suspended in 5 ml of Mueller-Hinton broth (BBL), and streaked on the entire surface of five Mueller-Hinton agar plates. The plates were incubated overnight under aerobic conditions at 35° C., growth was removed from the agar using a sterile cotton swab, and the bacteria were suspended in 10 ml physiological saline. This bacterial suspension was the inoculum for the mutation frequency determinations. Standard plate counts were performed on the inoculum by performing serial dilutions and plating a 0.1 ml aliquot on the surface of ten Mueller-Hinton agar plates at each concentration. The plates were incubated for 18-24 hours at 35° C. under aerobic conditions and colony counts performed. Mean bacterial counts were calculated for the inoculum with each strain.
A 0.1 ml aliquot of the inoculum was then used to inoculate the entire surface of ten plates each containing 1, 10, and 100 μg/ml of the test antimicrobial agents. The plates were incubated for 18-24 hours at 35° C. under aerobic conditions and colony counts performed. Mean bacterial counts were calculated for each antimicrobial concentration and the mutation frequency calculated by dividing the number of colonies which grew on the drug containing media by the inoculum size.

Experiment [5] relates to rifampin-resistant S. aureus 12637. Description: microbe, parasite or virus in culture. The format is cell-based, Staphylococcus aureus. The settings on record: strain 12637. As to the method: (§5) The antibacterial effect of the rifamycin derivative (1) against rifampin-resistant Staphylococcus aureus bacterial strains was determined. The tested bacterial strains were isolated from a variety of animal diseases as well as laboratory strains.
(§6) All bacteria were maintained on 3 mm glass beads immersed in trypticase soy broth (BBL Microbiology Systems, Cockeysville, Md.) with 10% glycerol and held at −70° C. until revived. Prior to testing, the organisms were subcultured on tryptose blood agar base (Difco, Detroit, Mich.) supplemented with 5% sheep blood for 24 hours at 35° C.
(§7) The compounds were dissolved in 95% ethanol and diluted to 10% ethanol in sterile, distilled water except for the compounds used in the in vivo testing where saline was used to dilute the original ethanol/drug suspension. Further dilutions were conducted in water or saline.
(§8) MICs were determined using the microbroth dilution method. In addition to the test organisms, the following quality control strain also was tested: Staphylococcus aureus ATCC 29213. The results are shown in Table 5, wherein R is the alkyl group R in the rifamycin derivative (1).

For experiment [6], the system named is rifampin-resistant S. aureus 30858. The experiment is described as follows: microbe, parasite or virus in culture. It is filed as cell-based, Staphylococcus aureus. The settings on record: strain 30858. As to the method: as §5, §6, §7, §8
The subject of experiment [7] is rifampin-resistant S. aureus 30859. The experiment is described as follows: microbe, parasite or virus in culture. It is filed as cell-based, Staphylococcus aureus. The settings on record: strain 30859. On the procedure: as §5, §6, §7, §8
Experiment [8] concerns rifampin-resistant S. aureus 30860. Description: microbe, parasite or virus in culture. The format is cell-based, Staphylococcus aureus. The following applies: strain 30860. On the procedure:
as §5, §6, §7, §8

The subject of experiment [9] is rifampin-resistant S. aureus 30862. Description: microbe, parasite or virus in culture. The format is cell-based, Staphylococcus aureus. The settings on record: strain 30862. On the procedure: as §5, §6, §7, §8
Experiment [10] has as its system rifampin-resistant S. aureus 30863. Description: microbe, parasite or virus in culture. The format is cell-based, Staphylococcus aureus. The settings on record: strain 30863. On the procedure:
as §5, §6, §7, §8

In experiment [11] the test system is rifampin-resistant S. aureus 30865. The experiment is described as follows: microbe, parasite or virus in culture. The following applies: strain 30865. The format is cell-based, Staphylococcus aureus. As to the method:
as §5, §6, §7, §8

Experiment [12] deals with rifampin-resistant S. aureus 30867. Description: microbe, parasite or virus in culture. The following applies: strain 30867. The format is cell-based, Staphylococcus aureus. On the procedure: as §5, §6, §7, §8
For experiment [13], the system named is rifampin-resistant S. aureus 30869. The experiment is described as follows: microbe, parasite or virus in culture. It is filed as cell-based, Staphylococcus aureus. The following applies: strain 30869. As to the method: as §5, §6, §7, §8
The test system of experiment [14] is rifampin-resistant S. aureus 30871. Description: microbe, parasite or virus in culture. The following applies: strain 30871. The format is cell-based, Staphylococcus aureus. As to the method:
as §5, §6, §7, §8

The subject of experiment [15] is rifampin-resistant S. aureus 30888. The experiment is described as follows: microbe, parasite or virus in culture. The format is cell-based, Staphylococcus aureus. The following applies: strain 30888. As to the method:
as §5, §6, §7, §8

The subject of experiment [16] is rifampin-resistant S. aureus 31068. Description: microbe, parasite or virus in culture. It is filed as cell-based, Staphylococcus aureus. The following applies: strain 31068. As to the method:
as §5, §6, §7, §8

The subject of experiment [17] is rifampin-resistant S. aureus B93-728M. The experiment is described as follows: microbe, parasite or virus in culture. The settings on record: strain B93-728M. The format is cell-based, Staphylococcus aureus. On the procedure:
as §5, §6, §7, §8

Where [18] appears, read: route IMM (intramammary), 1 hour after infection.
The mark [19] stands for this setting: Staphylococcus aureus, read-out: MIC.

Take `CO[C@H]1/C=C/O[C@@]2(C)Oc3c(C)c(O)c4c(O)c(c(/C=N/N5CCN(C)CC5)c(O)c4c3C2=O)NC(=O)/C(C)=C\C=C\[C@H](C)[C@H](O)[C@@H](C)[C@@H](O)[C@@H](C)[C@H](OC(C)=O)[C@@H]1C` [Rifampin, reference compound]: the “ED (mg/kg/d) Mastitis” value in experiment [1] (setting [18]) is 0.4 mg/kg/day. The “ED (mg/kg/d) Culture” value in experiment [1] (route IMM (intramammary)) is above 2.0 mg/kg/day. Moreover, the MIC in [2] (read-out: MIC) was at most 0.03 µg/mL; in the experiment with S. aureus 6097 (setting [19]) it was 1.9 ng/mL (≈ 0.00231 µM); in the experiment on S. aureus ATCC 29213 [3] (Staphylococcus aureus, ATCC29213, read-out: MIC), 1.9 ng/mL (≈ 0.00231 µM); in [5] (setting [19]), above 32 µg/mL; in experiment [6] (setting [19]) it was 8 µg/mL (≈ 9.72 µM); in [7] (setting [19]), above 32 µg/mL. Also, the MIC in experiment [8] (setting [19]) was above 32 µg/mL; in experiment [9] (setting [19]) it was above 32 µg/mL; in experiment [10] (setting [19]), above 32 µg/mL; in experiment [11] (setting [19]), 32 µg/mL (≈ 38.9 µM); in [12] (setting [19]), 32 µg/mL (≈ 38.9 µM); in experiment [13] (setting [19]) it was 4 µg/mL (≈ 4.86 µM). Further, the MIC in experiment [14] (setting [19]) is above 32 µg/mL; in experiment [15] (setting [19]), above 32 µg/mL; in experiment [16] (setting [19]), 4 µg/mL (≈ 4.86 µM); in experiment [17] (setting [19]), 2 µg/mL (≈ 2.43 µM). The Mutation frequency is reported as 2.6 × 10^−8 in the experiment on S. aureus ATCC 29213 [4] (1 μg/ml), 2.5 × 10^−8 in the experiment with S. aureus ATCC 29213 [4] (10 μg/ml) and 1.9 × 10^−8 with S. aureus ATCC 29213 [4] (100 μg/ml).

Consider `COC1/C=C/OC2(C)Oc3c(C)c(O)c4c(=O)c(c5oc6cc(N7CCN(C)CC7)cc(O)c6nc-5c4c3C2=O)NC(=O)/C(C)=C\C=C\C(C)C(O)C(C)C(O)C(C)C(OC(C)=O)C1C` (centres unmarked) [R = methyl], for which the figures for the “ED (mg/kg/d) Mastitis” value in experiment [1] (setting [18]) and in experiment [1] (route SC (subcutaneous)) were 0.3 mg/kg/day and 0.2 mg/kg/day, respectively. Besides, the “ED (mg/kg/d) Culture” value in [1] (route IMM (intramammary)) was 0.3 mg/kg/day; in [1] (route SC (subcutaneous)), 0.5 mg/kg/day. In addition, the MIC entry in experiment [2] is “≦0.03 μg/ml”; against S. aureus 6097, 0.061 ng/mL (≈ 6.79e-05 µM); against S. aureus ATCC 29213 [3], 0.061 ng/mL (≈ 6.79e-05 µM); in [5], 0.25 µg/mL (≈ 0.278 µM); in experiment [6], 2.0 µg/mL (≈ 2.22 µM); in [7] it was 0.25 µg/mL (≈ 0.278 µM). Moreover, the MIC was 4.0 µg/mL (≈ 4.45 µM) in experiment [8]; 2.0 µg/mL (≈ 2.22 µM) in experiment [9]; 0.25 µg/mL (≈ 0.278 µM) in experiment [10]; 0.06 µg/mL (≈ 0.0667 µM) in [11]; 0.5 µg/mL (≈ 0.556 µM) in experiment [12]; 0.25 µg/mL (≈ 0.278 µM) in [13]. Further, the MIC came out at 2.0 µg/mL (≈ 2.22 µM) in experiment [14], 0.13 µg/mL (≈ 0.145 µM) in experiment [15], 2.0 µg/mL (≈ 2.22 µM) in experiment [16] and 0.5 µg/mL (≈ 0.556 µM) in experiment [17]. Also, the Mutation frequency in the experiment on S. aureus ATCC 29213 [4] (1 μg/ml) is 2.1 × 10^−9; in the experiment on S. aureus ATCC 29213 [4] (10 μg/ml), <1.1 × 10^−9; with S. aureus ATCC 29213 [4] (100 μg/ml), <1.1 × 10^−9.
